{
  "source": "patent US12662707B2",
  "about": "“MYC amplification drives resistance to pan-RAS inhibitors in pancreatic cancer” (The Trustees of Columbia University in the City of New York, priority 2024, dated 2026)",
  "key": {"[1]": {"tested_on": "pERK, pS6, CC3, Cyclin A2 in KPC tumors", "experiment": "Pharmacodynamic IHC of KPC tumors (SD, 1 wk, EP)", "format": "in vivo, mouse", "experimental": "Tumor formation in KPC mice was monitored by bi-weekly palpation. […] Treatments were performed every other day via oral gavage for 1 week. […] Following two consecutive ultrasounds, RMC-7977-treated animals were sacrificed either 4 (n=7) or 24 hours (n=4) after last dose and Vehicle-treated animals were sacrificed between 4-24 hours post last dose. Tissue was harvested and preserved as previously described (See Xenograft studies section). Additional group of KPC mice was also treated with a single dose of RMC-7977 (n=10) or Vehicle (n=3) and tissues were harvested at 4 or 24 hours post dose as previously described. […] RNA was extracted from at least 20 mg of indicated OCT or LN2 frozen tissue using an RNeasy Mini Kit (Qiagen, 74104) and a High Throughput Tissue grinder following the manufacturer's protocol. Reverse transcription was carried out using High-Capacity cDNA Reverse Transcription Kit (ABI, 4368814) according to the manufacturer's protocol. The cDNA product was used for qPCR analysis using TaqMan Gene Expression Master Mix (ABI, 4369016) or iTaq Universal SYBR Green Supermix (BioRad, 172-5125) depending on the primer. […] For qPCR, Ct value of MAPK signature genes and 18S were obtained for analysis. Generated Ct value were normalized to 18S, and then the mean relative mRNA expression levels of each sample were normalized to the average of the vehicle control group. Values were plotted as relative change in mRNA expression compared to Vehicle. Means±s.d. were shown. For primer sequences and more information. All tissues were fixed for up to 24 hours using 10% neutral buffered formalin and then moved to 70% ethanol for long term storage. All stainings were performed on 4-μm tissue sections. Sections were deparaffinized using a Leica XL ST5010 autostainer, after which slides were subjected to heat-activated epitope retrieval. […] Slides were further blocked in serum for 1 hour, and primary antibodies were added for overnight incubation at 4° C. […] Following incubation, ImmPACT DAB peroxidase (Vector Laboratories, SK-4100) was used to develop the stain and hematoxylin was used as nuclear counterstain. Stained slides were imaged at 40× magnification. Quantitative analyses of IHC images were performed using ImageJ."}, "[2]": {"tested_on": "796 human tumor cell lines", "experiment": "PRISM multiplex cell line screening", "format": "cell-based", "details": "5 days; relative to the other cell lines of the screen", "experimental": "The PRISM cell set consisted of 796 cell lines representing more than 45 lineages, which largely overlapped with the Cancer Cell Line Encyclopedia (CCLE) (portals.broadinstitute.org/ccle). Cell lines were grown in RPMI without phenol red, supplemented with 10% or 20% FBS for adherent and suspended lines, respectively. Parental cell lines were stably infected with a unique 24-nucleotide DNA barcode via lentiviral transduction and blasticidin selection. After selection, barcoded cell lines were expanded and subjected to quality control (mycoplasma contamination test, a SNP test for confirming cell line identity, and barcode ID confirmation). Approved cell lines were then pooled (20-25 cell lines per pool) based on doubling time similarity and frozen in assay-ready vials.\nRMC-7977 was added to 384-well plates at 8-point concentration with 3-fold dilutions in triplicate. These assay-ready plates were then seeded with the thawed cell line pools. […]\nEach cell line's unique barcode is located in the 3′UTR of the blasticidin resistance gene and therefore is expressed as mRNA. […] Finally, Luminex beads that recognize the specific barcode sequences in the cell set were hybridized to the PCR products and detected using a Luminex scanner which reports signal as a median fluorescent intensity (MFI). […]"}, "[3]": {"tested_on": "normal tissues (colon, skin, liver, intestines, lungs, kidneys)", "experiment": "IHC and histopathology of normal tissues of KPC mice", "format": "in vivo, mouse", "experimental": "Tumor formation in KPC mice was monitored by bi-weekly palpation. […] Treatments were performed every other day via oral gavage for 1 week. […] Following two consecutive ultrasounds, RMC-7977-treated animals were sacrificed either 4 (n=7) or 24 hours (n=4) after last dose and Vehicle-treated animals were sacrificed between 4-24 hours post last dose. Tissue was harvested and preserved as previously described (See Xenograft studies section). Additional group of KPC mice was also treated with a single dose of RMC-7977 (n=10) or Vehicle (n=3) and tissues were harvested at 4 or 24 hours post dose as previously described. All tissues were fixed for up to 24 hours using 10% neutral buffered formalin and then moved to 70% ethanol for long term storage. All stainings were performed on 4-μm tissue sections. Sections were deparaffinized using a Leica XL ST5010 autostainer, after which slides were subjected to heat-activated epitope retrieval. […] Slides were further blocked in serum for 1 hour, and primary antibodies were added for overnight incubation at 4° C. […] Following incubation, ImmPACT DAB peroxidase (Vector Laboratories, SK-4100) was used to develop the stain and hematoxylin was used as nuclear counterstain. Stained slides were imaged at 40× magnification. Quantitative analyses of IHC images were performed using ImageJ."}},
  "data": [
    {"compound": "CCn1c(-c2cc(N3CCN(C4CC4)CC3)cnc2[C@H](C)OC)c2c3cc(ccc31)-c1csc(n1)C[C@H](NC(=O)[C@H]1[C@@H]3COC[C@@H]31)C(=O)N1CCC[C@H](N1)C(=O)OCC(C)(C)C2", "note": "[RMC-7977]", "values": [
      {"measurement": "evaluable EP KPC tumors with full inhibition of pERK expression", "setting": "[1]; 6 of 7 tumors, 4 hours post final dose", "value": 86, "unit": "%"},
      {"measurement": "proliferation (Cyclin A2) in EP tumors", "setting": "[1]; EP tumors, 24 hours post-dosing", "value": "no longer deeply suppressed"},
      {"measurement": "apoptosis in KPC tumors", "setting": "[1]; SD, 1 Wk and EP samples, 4 hours after treatment", "value": "wave of apoptosis"},
      {"measurement": "reduced proliferation (Cyclin A2) in KPC tumors", "setting": "[1]; after a week of treatment", "value": "pronounced and significant"},
      {"measurement": "proliferation (Cyclin A2) in KPC tumors", "setting": "[1]; single dose", "value": "trend towards reduced proliferation"},
      {"measurement": "time to restoration of Ras/Mapk signaling", "setting": "[1]; single dose", "value": "≤ 24", "unit": "h"},
      {"measurement": "Ras/Mapk signaling (pERK IHC) in KPC tumors", "setting": "[1]; single dose, 4 hours after treatment", "value": "near-complete inhibition"},
      {"measurement": "pS6 (S235/S236 and S240/S244) in EP tumors", "setting": "[1]; the same 6 EP tumors", "value": "continued inhibition"},
      {"measurement": "sensitivity of human PDAC cell lines in PRISM screen (AUC)", "setting": "[2]", "value": "among the most sensitive"},
      {"measurement": "effects on apoptosis (CC3) and proliferation (Cyclin A2) in colon and skin", "setting": "[3]; SD, 1 Wk and EP KPC mice, all timepoints", "value": "absent or negligible"},
      {"measurement": "treatment-associated histopathological feature", "setting": "[3]; proximal intestines of half the treated animals, no diarrhea or weight loss", "value": "modest increase in apoptosis"}
    ]}
  ]
}
